Data on 19 molecules can be found in patent publication US20250326753A1, “DUAL CXCR4-BTK INHIBITORS” (X4 Pharmaceuticals, Inc., priority 2022, published 2025).

The experiment has as its target T1, BTK (Bruton tyrosine kinase) (Homo sapiens, UniProt Q06187).
T1 construct: GST or His (the text leaves open which); purchased Reaction Biology Europe GmbH Lot 012,11; host or cells: Sf9 insect cells or E. coli (not resolved)
Put plainly: BTK screening assay (33PanQinase Activity Assay, radiometric). The experiment is classed as biochemical. The settings on record: Inhibition of BTK, radiometric 33PanQinase Activity Assay, 3 μM ATP, 10 concentrations in singlicate, top 10 μM; read-out: 33PanQinase ® Radiometric IC50. On the procedure:
Inhibition of BTK activity was evaluated using a radiometric protein kinase assay (33PanQinase® Activity Assay) to measure the activity of BTK (Bruton tyrosine kinase).
Kinase assays were performed in 96-well ScintiPlates™ from Perkin Elmer (Boston, MA, USA) in a 50 μL reaction volume. The reaction cocktail was pipetted in four steps in the following order: 10 μL of non-radioactive ATP solution (in H2O); 25 μL of assay buffer/[γ-^33P]-ATP mixture; 5 μL of compound test sample in 10% DMSO; 10 μL of enzyme/substrate mixture.
BTK kinase was expressed in Sf9 insect cells or in E. coli as recombinant GST-fusion proteins or His-tagged proteins, either as full-length or enzymatically active fragments from human cDNAs, and purified by either GSH-affinity chromatography or immobilized metal. Purity was examined by SDS-PAGE/Coomassie staining, and identity confirmed by mass spectroscopy.
The reaction cocktails were incubated at 30° C. for 60 minutes. The reaction was stopped with 50 μL of 2% (v/v) H3PO4, plates were aspirated and washed two times with 200 μL 0.9% (w/v) NaCl. Incorporation of ^33Pi (counting of “cpm”) was determined with a microplate scintillation counter (Microbeta, Wallac).
The median value of the counts in wells containing assay buffer without enzyme, and without test compound was defined as “low control.” This value reflects unspecific binding of radioactivity to the plate in the absence of a protein kinase but in the presence of the substrate. The median value of the counts in wells containing assay buffer without test compound was defined as the “high control,” i.e. full activity in the absence of any inhibitor. The difference between high and low control was taken as 100% activity. Residual activity (in %) was calculated using the following formula: Res. Activity (%)=100×[(cpm of compound-low control)/(high control-low control)].
The fitting method used was a least-squares fit.

T1 sequence (Q06187 whole entry): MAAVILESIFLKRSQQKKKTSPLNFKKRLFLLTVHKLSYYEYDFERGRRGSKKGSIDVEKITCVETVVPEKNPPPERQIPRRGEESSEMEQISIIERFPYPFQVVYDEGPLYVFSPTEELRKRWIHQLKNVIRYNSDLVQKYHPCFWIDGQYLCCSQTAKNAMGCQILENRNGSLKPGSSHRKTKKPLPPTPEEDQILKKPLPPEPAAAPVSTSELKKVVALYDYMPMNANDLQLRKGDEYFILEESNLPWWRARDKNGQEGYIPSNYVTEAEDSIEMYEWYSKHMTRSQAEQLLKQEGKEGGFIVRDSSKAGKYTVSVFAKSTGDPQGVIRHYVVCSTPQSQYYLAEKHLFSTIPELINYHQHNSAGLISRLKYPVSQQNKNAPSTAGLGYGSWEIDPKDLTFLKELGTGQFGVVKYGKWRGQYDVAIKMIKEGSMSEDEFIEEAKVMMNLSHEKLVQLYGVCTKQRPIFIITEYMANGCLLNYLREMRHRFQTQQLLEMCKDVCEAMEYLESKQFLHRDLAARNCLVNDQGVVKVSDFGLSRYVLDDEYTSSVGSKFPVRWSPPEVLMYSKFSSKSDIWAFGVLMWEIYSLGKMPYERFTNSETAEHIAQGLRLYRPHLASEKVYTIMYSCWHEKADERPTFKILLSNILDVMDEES

In the case of `Cc1cc(-c2ncnc3[nH]c(C(=O)NCCCCN4[C@@H](c5ncccc5C)CCC[C@H]4c4ncccc4C)cc23)ccc1CNC(=O)c1ccccc1` [Compound I-47], the IC50 (as a rule, the concentration that inhibits the measured activity by half) lay within 1 to 100 nM.

In the case of `CCc1ccc(C(=O)NCc2ccc(-c3ncnc4[nH]c(C(=O)NCCCCN5[C@@H](c6ncccc6C)CCC[C@H]5c5ncccc5C)cc34)cc2C)cc1` [Compound I-48], the IC50 is 1 to 100 nM.

On to `Cc1cc(-c2ncnc3[nH]c(C(=O)NCCCCN4[C@@H](c5ncccc5C)CCC[C@H]4c4ncccc4C)cc23)ccc1CNC(=O)c1ccc(F)cc1` [Compound I-49], for which the concentration for half-maximal inhibition (IC50) is 1 to 100 nM.

With `Cc1cc(-c2ncnc3[nH]c(C(=O)NCCCN4[C@@H](c5ncccc5C)CCC[C@H]4c4ncccc4C)cc23)ccc1CNC(=O)c1ccccc1` [Compound I-50], the IC50 lay in the range of 1 to 100 nM.

In the case of `CCc1ccc(C(=O)NCc2ccc(-c3ncnc4[nH]c(C(=O)NCCCN5[C@@H](c6ncccc6C)CCC[C@H]5c5ncccc5C)cc34)cc2C)cc1` [Compound I-51], the half-inhibitory concentration (IC50) lay within 1 to 100 nM.

Consider `Cc1cc(-c2ncnc3[nH]c(C(=O)NCCCN4[C@@H](c5ncccc5C)CCC[C@H]4c4ncccc4C)cc23)ccc1CNC(=O)c1ccc(F)cc1` [Compound I-52], for which the IC50 is 1 to 100 nM.

Consider `CCOC1CN(C(=O)NCc2ccc(-c3ccnc(Nc4cnn(CCN5[C@@H](c6ncccc6C)CCC[C@H]5c5ncccc5C)c4)n3)cc2C)C1` [Compound I-53], for which the IC50 is 1 to 100 nM.

In the case of `COC1CN(C(=O)NCc2ccc(-c3ccnc(Nc4cnn(CCCN5[C@@H](c6ncccc6C)CCC[C@H]5c5ncccc5C)c4)n3)cc2C)C1` [Compound I-54], the IC50 was in the range of 1 to 100 nM.

For `CCOC1CN(C(=O)NCc2ccc(-c3ccnc(Nc4cnn(CCCN5[C@@H](c6ncccc6C)CCC[C@H]5c5ncccc5C)c4)n3)cc2C)C1` [Compound I-55], the IC50 fell in the range of 1 to 100 nM.

For `Cc1cc(-c2ccnc(Nc3cnn(CCCN4[C@@H](c5ncccc5C)CCC[C@H]4c4ncccc4C)c3)n2)ccc1CNC(=O)N1CC(OC(C)(C)C)C1` [Compound I-56], the IC50 was in the range of 1 to 100 nM.

Regarding `Cc1cc(-c2ccnc(Nc3cnn(CCCN4[C@@H](c5ncccc5C)CCC[C@H]4c4ncccc4C)c3)n2)ccc1CNC(=O)N1CC(OC(F)(F)F)C1` [Compound I-57], the IC50 is 1 to 100 nM.

For the molecule `Cc1ccc(Oc2ccc(C(=O)c3c[nH]c4ncnc(N[C@@H]5CC[C@@H](C(=O)NCCCCN6[C@@H](c7ncccc7C)CCC[C@H]6c6ncccc6C)OC5)c34)c(Cl)c2)cc1` [Compound I-58], the IC50 is 1 to 100 nM.

On to `Cc1cccc(Oc2ccc(C(=O)c3c[nH]c4ncnc(N[C@@H]5CC[C@@H](C(=O)NCCCCN6[C@@H](c7ncccc7C)CCC[C@H]6c6ncccc6C)OC5)c34)c(Cl)c2)c1` [Compound I-59], for which the IC50 lay in the range of 1 to 100 nM.

Turning to `Cc1ccccc1Oc1ccc(C(=O)c2c[nH]c3ncnc(N[C@@H]4CC[C@@H](C(=O)NCCCCN5[C@@H](c6ncccc6C)CCC[C@H]5c5ncccc5C)OC4)c23)c(Cl)c1` [Compound I-60], the IC50 fell in the range of 1 to 100 nM.

Turning to `Cc1cccnc1[C@H]1CCC[C@@H](c2ncccc2C)N1CCN1CCN(C(=O)c2ccc(-c3cc4c(-c5cccc(NC(=O)c6ccc(F)cc6)c5C)ncnc4[nH]3)cc2)CC1` [Compound I-67], the IC50 lay in the range of 1 to 100 nM.

On to `Cc1cccnc1[C@H]1CCC[C@@H](c2ncccc2C)N1CCN1CCN(C(=O)c2ccc(-c3cc4c(-c5cccc(NC(=O)c6ccccc6F)c5C)ncnc4[nH]3)cc2)CC1` [Compound I-68], for which the IC50 was in the range of 1 to 100 nM.

Consider `CC(=O)Nc1cccc(-c2ncnc3[nH]c(-c4ccc(C(=O)N5CCN(CCN6[C@@H](c7ncccc7C)CCC[C@H]6c6ncccc6C)CC5)cc4)cc23)c1C` [Compound I-69], for which the IC50 lay in the range of 1 to 100 nM.

With `Cc1cccnc1[C@H]1CCC[C@@H](c2ncccc2C)N1CCN1CCN(C(=O)c2ccc(-c3cc4c(-c5cccc(NC(=O)C(C)(C)C)c5C)ncnc4[nH]3)cc2)CC1` [Compound I-70], the IC50 lay within 100 to 1000 nM.

On to `Cc1cccnc1[C@H]1CCC[C@@H](c2ncccc2C)N1CCN1CCN(C(=O)[C@]23C[C@](c4cc5c(-c6cccc(NC(=O)c7ccccc7)c6C)ncnc5[nH]4)(C2)C3)CC1` [Compound I-71], for which the IC50 was 1000 to 2500 nM.
